Reference: article PMC3465485 (Antiviral research, 2012)
“Also recorded” adds a separate entry of the source. Where two headings read alike, the source gives them in different places.

Columns and labels:
[1] = tested on: A/Hong Kong/2369/2009 (H1N1) H275Y (A/HK-H275Y) virus
[2] = tested on: Influenza A/Mississippi/03/2001 (H1N1) H275Y (A/MS-H275Y) virus
[3] = tested on: influenza A/MS-H275Y virus; set-up: species or system BALB/c mice; details: mouse, in vivo
[4] = target: A/MS-H275Y neuraminidase (Influenza A virus (A/Mississippi/03/2001(H1N1)), UniProt C7FPR5, H275Y); type: biochemical
[5] = target: A/HK-H275Y neuraminidase (Influenza A virus (A/Hong Kong/2369/2009(H1N1)), UniProt C6KQ69); experiment: biochemical
[6] = tested on: influenza A/HK-H275Y virus neuraminidase; details: NA-Star assay, ref Nguyen et al., 2010a; cited from earlier work
[7] = tested on: influenza A/HK-H275Y virus; set-up: species or system BALB/c mice; details: mouse, in vivo
[8] = tested on: influenza A/WSN/33 (H1N1) H275Y virus; details: A/WSN/33 (H1N1) H275Y in mice, up to 10 mg/kg/day; ref Baz et al. (2009); cited from earlier work
[9] = read-out: EC50 (50% virus-inhibitory concentration)

NC12CC3CC(CC(C3)C1)C2 [Amantadine]
EC50 [1]: > 100 µM | antiviral activity in cell culture (in words) [1]: not active | EC50 [2, 9]: 0.3 ± 0.05 µM | survival effect (in words) [3]: No significant effect | survival effect (in words) ([3]; po, 3 mg/kg/day): no effect | protection from death ([3]; po, 30 mg/kg/day): 60% | protection from death ([3]; po, 100 mg/kg/day): 100% | protective activity ([3]; po, 100 mg/kg/day): 100%

CCC(CC)O[C@@H]1C=C(C(=O)O)C[C@H](N)[C@H]1NC(C)=O [Oseltamivir Carboxylate, Oseltamivir carboxylate]
sensitivity of the viral neuraminidases (in words) [4]: resistant | IC50 ([5]; IC50): > 0.1 µM | EC50 [1]: > 100 µM | IC50 [6]: 78 µM | EC50 [2, 9]: > 100 µM

CCOC(=O)C1=C[C@@H](OC(CC)CC)[C@H](NC(C)=O)[C@@H](N)C1 [Oseltamivir, Oseltamivir phosphate]
antiviral activity in cell culture (in words) [1]: resistant | antiviral activity in cell culture (in words) [2]: resistant | protection [3]: up to 60% | survival effect (in words) [3]: not active | survival effect (in words) ([3]; po): ineffective | benefit (in words) ([3]; po, 25 mg/kg/day): no benefit | survival (protection from death) ([3]; po, 100 mg/kg/day): 30% | survival (protection from death) ([3]; po, 300 mg/kg/day): 60% | body weight change (in words) [7]: did not fall as rapidly as in the lower dosage and placebo groups | day of infection after which body weights began to increase [7]: > 10 days | survival effect (in words) [7]: not significantly effective | benefit (in words) ([7]; po, 25 mg/kg/day): no benefit | survival (protection from death) ([7]; po, 100 mg/kg/day): 50% | survival (protection from death) ([7]; po, 300 mg/kg/day): 70% | efficacy in treating the infection (in words) [8]: ineffective | mortality rate [8]: 75%

NC(=O)c1ncn([C@@H]2O[C@H](CO)[C@@H](O)[C@H]2O)n1 [Ribavirin]
EC50 [1]: 33 ± 13 µM | EC50 [2, 9]: 25 ± 4.6 µM | survival effect (in words) [3]: not effective | lung virus titer versus placebo (in words) ([7]; po): significantly reduced virus titers; also recorded: not significantly lower than placebo | body weight change (in words) ([7]; po, 75 mg/kg/day): Weight decline was least severe | day of infection after which weight gain started ([7]; po, 75 mg/kg/day): > 8 days | survival effect (in words) ([7]; po, 75 mg/kg/day): fully protective

CC(N)C12CC3CC(CC(C3)C1)C2 (stereo not shown) [Rimantadine]
EC50 [1]: > 22 µM | SI (CC50/EC50) [1]: 0 | antiviral activity in cell culture (in words) [1]: not active | SI (CC50/EC50) [2]: 2200 | EC50 [2, 9]: 0.01 ± 0.003 µM | survival effect (in words) [3]: no significant effect

CC(=O)N[C@H]1[C@H]([C@H](O)[C@H](O)CO)OC(C(=O)O)=C[C@@H]1N=C(N)N [Zanamivir]
sensitivity of the viral neuraminidases (in words) [4]: sensitive | IC50 ([5]; IC50): 0.0009 ± 0.0002 µM | EC50 [1]: 0.36 ± 0.58 µM | antiviral activity in cell culture (in words) [1]: highly sensitive | IC50 [6]: 0.43 µM | antiviral activity in cell culture (in words) [2]: highly sensitive | EC50 [2, 9]: 0.24 ± 0.08 µM | survival effect (in words) [3]: ineffective; also recorded: delayed the time to death significantly but did little to prevent mortality

Peramivir
IC50 [4]: 0.038 ± 0.001 µM | sensitivity of the viral neuraminidases (in words) [4]: resistant | IC50 [5]: 0.029 ± 0.0023 µM | EC50 [1]: 7.9 ± 3 µM | SI (CC50/EC50) [1]: >12 | antiviral activity in cell culture (in words) [1]: decreased sensitivity | IC50 [6]: 9.2 µM | SI (CC50/EC50) [2]: >12 | antiviral activity in cell culture (in words) [2]: decreased sensitivity | EC50 [2, 9]: 8.1 ± 5.2 µM | EC50 ([2]; read-out: inhibitory concentration against the H275Y viruses in cell culture): ~8 µM
